Experimental data as given in publication PMC12392461, “Beyond Estrogenicity: A Comparative Assessment of Bisphenol A and Its Alternatives in In Vitro Assays Questions Safety of Replacements” (Environmental Science & Technology, 2025).
Where two headings read alike, the source gives them in different places.

Columns and labels:
SH-SY5Y cells = conditions: for Toxic ratio (TR) TRNOI: against baseline cytotoxicity; for IC10, SH-S5Y5, NOI: cytotoxicity, NOI assay cells
Outline: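 Cytotoxicity was scored by live–dead nuclear staining (Nuclear Green LCS1 plus propidium iodide) after 24 h chemical exposure at 37° C. Cells were retinoic acid-differentiated (10 µM) and held in medium with 2% B-27 and 2 mM GlutaMAX. Duplicate 11-point dilution series were used, and IC10 was derived.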

MCF7 (ARE/MMP) = conditions: for Toxic ratio (TR) TRARE / Toxic ratio (TR) TRMMP: against baseline cytotoxicity; for Toxic ratio (TR) TRARE: ARE readout; for IC10, MCF7, ARE: MCF7, ARE readout; for Toxic ratio (TR) TRMMP: MMP readout; for IC10, MCF7, MMP: MCF7, MMP readout
Outline: (§1)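 For the AhR, PPARγ, ERα and ARE reporter lines, a 24 h chemical exposure followed 24 h of attachment, with serial dilutions tested in duplicate. ARE activity was benchmarked as ECIR1.5 and the others as EC10, each from concentrations below the IC10. Cytotoxicity was taken from change in confluency by live-cell imaging.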

H4IIe (AhR CALUX) = conditions: for IC10, linear: linear model fit; for Toxic ratio (TR) TRAhR: against baseline cytotoxicity; for IC10, H4IIe, AhR: H4IIe (AhR assay cells)
Outline: as §1

HEK293H (PPARγ) = conditions: for Toxic ratio (TR) TRPPARγ: against baseline cytotoxicity; for IC10, HEK293, PPARγ: cytotoxicity, HEK293 (PPARγ assay cells)
Outline: as §1

HEK293T (ERα) = conditions: for Toxic ratio (TR) TRERα: against baseline cytotoxicity; for IC10, HEK293, ERα: HEK293 (ERα assay cells)
Outline: as §1

[1] = NOI bioassay cytotoxicity, dosing range all
[2] = NOI bioassay cytotoxicity, dosing range all, linear model
[3] = NOI bioassay cytotoxicity, dosing range all, log-logistic model
[4] = Bioassay ARE, cytotoxicity, dosing range all
[5] = Bioassay ARE, cytotoxicity, dosing range all, linear model fit
[6] = Bioassay ARE, cytotoxicity, dosing range all, log-logistic model fit
[7] = MMP bioassay cytotoxicity, dosing range all
[8] = MMP bioassay cytotoxicity, dosing range all, linear model
[9] = MMP bioassay cytotoxicity, dosing range all, log-logistic model
[10] = Bioassay AhR, cytotoxicity, dosing range all
[11] = Bioassay AhR, cytotoxicity, dosing range all, log-logistic model fit
[12] = PPARγ bioassay cytotoxicity, dosing range all
[13] = PPARγ bioassay cytotoxicity, dosing range all, linear model
[14] = PPARγ bioassay cytotoxicity, dosing range all, log-logistic model
[15] = Bioassay ERα, cytotoxicity, dosing range all
[16] = Bioassay ERα, cytotoxicity, dosing range all, linear model fit
[17] = Bioassay ERα, cytotoxicity, dosing range all, log-logistic model fit

| SMILES | IC10, linear (SH-SY5Y cells; [2]) | logIC10 (SH-SY5Y cells; [3]) | Toxic ratio (TR) TRNOI (SH-SY5Y cells) | IC10, SH-S5Y5, NOI (SH-SY5Y cells) [µM] | IC10, linear (MCF7 (ARE/MMP); [5]) | logIC10 (MCF7 (ARE/MMP); [6]) | IC10, linear transformed (MCF7 (ARE/MMP); [7]) | IC10, linear (MCF7 (ARE/MMP); [8]) | logIC10 (MCF7 (ARE/MMP); [9]) | IC10, linear transformed (H4IIe (AhR CALUX); [10]) | IC10, linear (H4IIe (AhR CALUX); [10]) | logIC10 (H4IIe (AhR CALUX); [11]) | Toxic ratio (TR) TRAhR (H4IIe (AhR CALUX)) | IC10, linear transformed (HEK293H (PPARγ); [12]) | IC10, linear (HEK293H (PPARγ); [13]) | logIC10 (HEK293H (PPARγ); [14]) | Toxic ratio (TR) TRPPARγ (HEK293H (PPARγ)) | IC10, HEK293, PPARγ (HEK293H (PPARγ)) [µM] | Toxic ratio (TR) TRERα (HEK293T (ERα)) | IC10, HEK293, ERα (HEK293T (ERα); cytotoxicity) [µM] | further results |
| --- | --- | --- | --- | --- | --- | --- | --- | --- | --- | --- | --- | --- | --- | --- | --- | --- | --- | --- | --- | --- | --- |
| COC(=O)C(c1ccc(O)cc1)c1ccc(O)cc1 [Bz, Methyl bis(4-hydroxyphenyl)acetate] | 3.73E-04 | -3.30 | 0.85 | 373 | 3.89E-04 | -3.30 | 3.45E-04 | 3.44E-04 | -3.46 | 1.41E-04 | 1.09E-04 | -3.85 | 3.18 | 1.09E-04 | 3.71E-04 | -3.55 | 0.92 | 282 | 0.26 | 1010 | IC10, linear transformed (SH-SY5Y cells; [1]): 5.07E-04; IC10, linear transformed (MCF7 (ARE/MMP); [4]): 4.96E-04; Toxic ratio (TR) TRARE (MCF7 (ARE/MMP)): 0.70; IC10, MCF7, ARE (MCF7 (ARE/MMP); cytotoxicity): 496 µM; IC10, H4IIe, AhR (H4IIe (AhR CALUX); cytotoxicity): 109 µM; IC10, linear transformed (HEK293T (ERα); Bioassay ERα, cytotoxicity, dosing range high): 1.18E-04; IC10, linear (HEK293T (ERα); Bioassay ERα, cytotoxicity, dosing range high, linear model fit): 1.01E-03; logIC10 (HEK293T (ERα); Bioassay ERα, cytotoxicity, dosing range high, log-logistic model fit): -3.63; IC10, linear (HEK293T (ERα); Bioassay ERα, cytotoxicity, dosing range low, linear model fit): no cytotoxicity; logIC10 (HEK293T (ERα); Bioassay ERα, cytotoxicity, dosing range low, log-logistic model fit): no cytotoxicity |
| O=C(OCc1ccccc1)c1ccc(O)cc1 [BzPB, Benzyl 4-hydroxybenzoate] | no cytotoxicity | -3.41 | 0.07 | 389 | 1.23E-04 | -4.05 | 2.97E-04 | 1.94E-04 | -3.53 | 2.87E-04 | 1.74E-04 | -3.54 | 0.19 | 3.90E-06 | 3.41E-05 | -4.33 | 0.35 | 46.8 | 0.39 | 42.1 | IC10, linear transformed (SH-SY5Y cells; [1]): 3.89E-04; IC10, linear transformed (MCF7 (ARE/MMP); [4]): 8.95E-05; Toxic ratio (TR) TRARE (MCF7 (ARE/MMP)): 0.38; Toxic ratio (TR) TRMMP (MCF7 (ARE/MMP)): 0.11; IC10, MCF7, ARE (MCF7 (ARE/MMP); cytotoxicity): 89.5 µM; IC10, MCF7, MMP (MCF7 (ARE/MMP); cytotoxicity): 297 µM; IC10, H4IIe, AhR (H4IIe (AhR CALUX); cytotoxicity): 174 µM; IC10, linear transformed (HEK293T (ERα); [15]): 1.15E-05; IC10, linear (HEK293T (ERα); [16]): 4.80E-05; logIC10 (HEK293T (ERα); [17]): -4.38 |
| CC(C)Oc1ccc(S(=O)(=O)c2ccc(O)cc2)cc1 [D8, 4-((4-Isopropoxyphenyl)sulfonyl)phenol] |  |  | 0.22 |  |  |  |  |  |  |  |  |  | 2.94 |  |  |  | 0.93 |  | 0.36 |  | IC10, linear (SH-SY5Y cells): no cytotoxicity; logIC10 (SH-SY5Y cells; human, 24 h): -3.31; Toxic ratio (TR) TRARE (MCF7 (ARE/MMP)): 0.06; Toxic ratio (TR) TRMMP (MCF7 (ARE/MMP)): 0.06; logIC10 (MCF7 (ARE/MMP); human, 24 h): -2.67; logIC10 (H4IIe (AhR CALUX); rat, 24 h): -4.56; IC10, linear (HEK293H (PPARγ)): no cytotoxicity; logIC10 (HEK293H (PPARγ); human, 24 h): -4.15; IC10, linear (HEK293T (ERα)): no cytotoxicity; logIC10 (HEK293T (ERα); human, 24 h): -3.73 |
| Cc1ccc(S(=O)(=O)NC(=O)Nc2cccc(OS(=O)(=O)c3ccc(C)cc3)c2)cc1 [Pergafast, N-(p-toluenesulfonyl)-N'-(3-(p-toluenesulfonyloxy)phenyl)urea] | 4.94E-05 | no cytotoxicity | 2.23 | 49.4 | 4.06E-05 | no cytotoxicity |  | no cytotoxicity | no cytotoxicity |  | no cytotoxicity | no cytotoxicity |  | 1.21E-06 | 2.22E-05 | -4.72 | 2.74 | 19.1 | 4.31 | 12.1 | IC10, linear transformed (HEK293T (ERα); [15]): 8.23E-06; IC10, linear (HEK293T (ERα); [16]): 1.21E-05; logIC10 (HEK293T (ERα); [17]): -4.96 |
| CC(C)(c1cc(Cl)c(O)c(Cl)c1)c1cc(Cl)c(O)c(Cl)c1 [TCBPA, 2,2',6,6'-Tetrachlorobisphenol A] | 3.70E-08 | no cytotoxicity |  |  | 8.16E-05 | -4.11 | 9.30E-05 | 7.25E-05 | -4.03 | 9.01E-05 | no cytotoxicity | -4.05 |  |  |  |  |  | 18.4 |  | 15.1 | IC10, linear transformed (MCF7 (ARE/MMP); [4]): 7.84E-05; IC10, MCF7, ARE (MCF7 (ARE/MMP); cytotoxicity): 78.4 µM; IC10, MCF7, MMP (MCF7 (ARE/MMP); cytotoxicity): 93 µM; IC10, H4IIe, AhR (H4IIe (AhR CALUX); cytotoxicity): 90.1 µM; IC10, linear transformed (HEK293H (PPARγ); PPARγ bioassay cytotoxicity, dosing range high): 5.23E-06; IC10, linear (HEK293H (PPARγ); PPARγ bioassay cytotoxicity, dosing range high, linear model): 1.84E-05; logIC10 (HEK293H (PPARγ); PPARγ bioassay cytotoxicity, dosing range high, log-logistic model): -4.74; IC10, linear transformed (HEK293H (PPARγ); PPARγ bioassay cytotoxicity, dosing range low): 7.55E-07; IC10, linear (HEK293H (PPARγ); PPARγ bioassay cytotoxicity, dosing range low, linear model): no cytotoxicity; logIC10 (HEK293H (PPARγ); PPARγ bioassay cytotoxicity, dosing range low, log-logistic model): no cytotoxicity; IC10, linear transformed (HEK293T (ERα); [15]): 6.86E-06; IC10, linear (HEK293T (ERα); [16]): 1.51E-05; logIC10 (HEK293T (ERα); [17]): -4.77 |
| Cc1cc(Cc2cc(C)c(O)c(C)c2)cc(C)c1O [TMBPF, Bis(3,5-dimethyl-4-hydroxyphenyl)methane] | 1.62E-05 | -4.90 | 0.73 | 12.7 | no cytotoxicity | no cytotoxicity | 1.42E-05 | no cytotoxicity | -4.85 | 1.05E-04 | 1.11E-04 | -3.98 | 0.13 | 4.21E-07 | 3.65E-06 | -5.53 | 1.52 | 2.95 | 0.68 | 6.58 | IC10, linear transformed (SH-SY5Y cells; [1]): 1.27E-05; Toxic ratio (TR) TRMMP (MCF7 (ARE/MMP)): 0.95; IC10, MCF7, MMP (MCF7 (ARE/MMP); cytotoxicity): 14.2 µM; IC10, H4IIe, AhR (H4IIe (AhR CALUX); cytotoxicity): 105 µM; IC10, linear transformed (HEK293T (ERα); [15]): 5.55E-06; IC10, linear (HEK293T (ERα); [16]): 6.58E-06; logIC10 (HEK293T (ERα); [17]): -5.17 |
| CC1(C)[C@H](O)C(C)(C)[C@H]1O [Trans TMCD] | no cytotoxicity | no cytotoxicity |  |  | no cytotoxicity | no cytotoxicity |  | no cytotoxicity | no cytotoxicity | 1.03E-02 | 8.94E-03 | -1.99 |  | 1.52E-03 | no cytotoxicity | no cytotoxicity |  |  |  |  | IC10, linear transformed (HEK293T (ERα); ERα bioassay cytotoxicity, dosing range all): 5.38E-03; IC10, linear (HEK293T (ERα); ERα bioassay cytotoxicity, dosing range all, linear model): no cytotoxicity; logIC10 (HEK293T (ERα); ERα bioassay cytotoxicity, dosing range all, log-logistic model): no cytotoxicity |
